From the NIST ThermoML archive (doi:10.1016/j.fluid.2010.07.011)
Numbers after ± are expanded uncertainties.

Experiment: xn = mol fraction of the nth substance listed
Conditions: 101.33 kPa, Liquid, Vibrating tube method

CCCCCCN [1-hexanamine] + CCCCO
mass density [kg/m3]
Conditions | 288.15 K | 293.15 K | 298.15 K | 303.15 K | 308.15 K | 313.15 K | 318.15 K | 323.15 K
x2 = 0 | 768.637 ± 0.6 | 764.385 ± 0.59 | 760.128 ± 0.59 | 755.856 ± 0.59 | 751.573 ± 0.58 | 747.276 ± 0.58 | 742.962 ± 0.58 | 738.636 ± 0.57
x2 = 0.0503 | 771.284 ± 0.56 | 767.06 ± 0.56 | 762.826 ± 0.56 | 758.576 ± 0.56 | 754.314 ± 0.55 | 750.035 ± 0.55 | 745.737 ± 0.55 | 741.427 ± 0.54
x2 = 0.1108 | 774.579 ± 0.53 | 770.381 ± 0.52 | 766.172 ± 0.52 | 761.947 ± 0.52 | 757.705 ± 0.51 | 753.444 ± 0.51 | 749.165 ± 0.51 | 744.868 ± 0.51
x2 = 0.1615 | 777.172 ± 0.49 | 772.994 ± 0.49 | 768.799 ± 0.49 | 764.593 ± 0.49 | 760.366 ± 0.48 | 756.118 ± 0.48 | 751.85 ± 0.48 | 747.565 ± 0.48
x2 = 0.2004 | 779.327 ± 0.47 | 775.161 ± 0.47 | 770.98 ± 0.47 | 766.783 ± 0.46 | 762.567 ± 0.46 | 758.331 ± 0.46 | 754.072 ± 0.46 | 749.795 ± 0.46
x2 = 0.2455 | 781.707 ± 0.44 | 777.556 ± 0.44 | 773.386 ± 0.44 | 769.201 ± 0.44 | 764.996 ± 0.43 | 760.77 ± 0.43 | 756.52 ± 0.43 | 752.247 ± 0.43
x2 = 0.3004 | 784.53 ± 0.41 | 780.391 ± 0.41 | 776.235 ± 0.41 | 772.062 ± 0.41 | 767.867 ± 0.41 | 763.651 ± 0.4 | 759.41 ± 0.4 | 755.147 ± 0.4
x2 = 0.4 | 789.735 ± 0.36 | 785.619 ± 0.36 | 781.483 ± 0.35 | 777.33 ± 0.35 | 773.155 ± 0.35 | 768.956 ± 0.35 | 764.732 ± 0.35 | 760.481 ± 0.35
x2 = 0.4802 | 793.847 ± 0.32 | 789.75 ± 0.32 | 785.637 ± 0.32 | 781.501 ± 0.32 | 777.345 ± 0.32 | 773.162 ± 0.32 | 768.953 ± 0.31 | 764.717 ± 0.31
x2 = 0.6294 | 800.788 ± 0.25 | 796.75 ± 0.25 | 792.692 ± 0.25 | 788.612 ± 0.25 | 784.508 ± 0.25 | 780.377 ± 0.25 | 776.215 ± 0.25 | 772.02 ± 0.25
x2 = 0.6999 | 803.655 ± 0.22 | 799.656 ± 0.22 | 795.637 ± 0.22 | 791.594 ± 0.23 | 787.526 ± 0.23 | 783.429 ± 0.23 | 779.299 ± 0.23 | 775.138 ± 0.23
x2 = 0.75 | 805.487 ± 0.21 | 801.517 ± 0.21 | 797.53 ± 0.21 | 793.517 ± 0.21 | 789.481 ± 0.21 | 785.41 ± 0.21 | 781.306 ± 0.21 | 777.172 ± 0.21
x2 = 0.7997 | 807.332 ± 0.19 | 803.397 ± 0.19 | 799.441 ± 0.19 | 795.46 ± 0.19 | 791.45 ± 0.19 | 787.411 ± 0.19 | 783.336 ± 0.19 | 779.228 ± 0.2
x2 = 0.8495 | 808.927 ± 0.17 | 805.024 ± 0.17 | 801.1 ± 0.18 | 797.154 ± 0.18 | 793.178 ± 0.18 | 789.169 ± 0.18 | 785.123 ± 0.18 | 781.043 ± 0.18
x2 = 0.8994 | 810.567 ± 0.16 | 806.697 ± 0.16 | 802.808 ± 0.16 | 798.893 ± 0.16 | 794.95 ± 0.17 | 790.973 ± 0.17 | 786.956 ± 0.17 | 782.9 ± 0.17
x2 = 0.9504 | 812.092 ± 0.15 | 808.261 ± 0.15 | 804.406 ± 0.15 | 800.528 ± 0.15 | 796.618 ± 0.15 | 792.674 ± 0.15 | 788.687 ± 0.15 | 784.663 ± 0.16

CCCCO [butan-1-ol] + CCCCCCN
x1 = 1
Conditions | mass density [kg/m3]
288.15 K | 813.373 ± 0.14
293.15 K | 809.573 ± 0.14
298.15 K | 805.762 ± 0.14
303.15 K | 801.923 ± 0.14
308.15 K | 798.053 ± 0.14
313.15 K | 794.147 ± 0.14
318.15 K | 790.231 ± 0.14
323.15 K | 786.238 ± 0.15

CCCCCCC [heptane] + CCCCCCN
x2 = 0
Conditions | mass density [kg/m3]
288.15 K | 687.954 ± 0.18
293.15 K | 683.733 ± 0.18
298.15 K | 679.494 ± 0.18
303.15 K | 675.229 ± 0.18
308.15 K | 670.941 ± 0.18
313.15 K | 666.621 ± 0.18
318.15 K | 662.273 ± 0.18
323.15 K | 657.896 ± 0.19
